# Biological target: GDP-bound KRAS protein (aa 1-169), containing both G12C and C118A amino acid substitutions (Homo sapiens (Human), UniProt P01116, C118A/G12C)
# Experiment: Coupled nucleotide exchange assay (SOS-mediated nucleotide exchange, AlphaScreen)
# Format: biochemical
# Details: 5 min compound pre-incubation; for IC50: read-out: Coupled exchange IC50 (5 min; μM)
# Description: Coupled Nucleotide Exchange Assay:
# Following compound pre-incubation, purified SOS protein (aa 564-1049) and GTP (Roche 10106399001) were added to the assay wells and incubated for an additional 30 min (for 5 min compound pre-incubation) or 1 hour (for 2 hour compound pre-incubation). […] The assay plates were then read on a PerkinElmer EnVision Multilabel Reader, using AlphaScreen® technology, and data were analyzed using a 4-parameter logistic model to calculate IC50 values.
# Sequence of GDP-bound KRAS protein (aa 1-169), containing both G12C and C118A amino acid substitutions (P01116 other isoform, or with tags, fused parts or gaps G12C/C118A): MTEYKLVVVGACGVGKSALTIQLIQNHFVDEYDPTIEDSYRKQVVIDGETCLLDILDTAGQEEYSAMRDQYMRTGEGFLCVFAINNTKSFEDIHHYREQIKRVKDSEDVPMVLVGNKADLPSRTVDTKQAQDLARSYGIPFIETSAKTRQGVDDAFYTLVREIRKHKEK
SMILES,Coupled exchange IC50 (5 min; μM) [µM],IC50 [µM]
"C=CC(=O)N1C[C@H](C)N(c2nc(=O)n(-c3c(C(C)C)cc(N4CCC4)nc3C(C)C)c3nc(-c4ccccc4F)c(Cl)cc23)C[C@H]1C (single isomer, unassigned) [Example 182-2]",0.187,
"C=CC(=O)N1C[C@H](C)N(c2nc(=O)n(-c3c(C)ccnc3C(C)C)c3nc(-c4ccccc4F)c(C)nc23)C[C@H]1C (single isomer, unassigned) [Example 225-2]",,0.501
"C=CC(=O)N1C[C@H](C)N(c2nc(=O)n(-c3c(C(C)C)nc(CC)nc3C(C)C)c3nc(-c4ccccc4F)c(Cl)cc23)C[C@H]1C [Example 169, 6-Chloro-4-[(2S,5R)-2,5-dimethyl-4-prop-2-enoyl-piperazin-1-yl]-1-(2-ethyl-4,6-diisopropyl-pyrimidin-5-yl)-7-(2-fluorophenyl)pyrido[2,3-d]pyrimidin-2-one]",,0.55
"C=CC(=O)N1C[C@@H](C)N(c2nc(=O)n(-c3c(C)ccnc3C(C)C)c3nc(-c4ccccc4F)c(Cl)nc23)[C@@H](C)C1 [Example 106-7, 6-Chloro-4-[(2R,6S)-2,6-dimethyl-4-prop-2-enoyl-piperazin-1-yl]-7-(2-fluorophenyl)-1-(2-isopropyl-4-methyl-3-pyridyl)pteridin-2-one]",,0.301
"C=CC(=O)N1C[C@H](C)N(c2nc(=O)n(-c3c(C)ccnc3C(C)C)c3nc(-c4nc(C)sc4C)c(Cl)cc23)C[C@H]1C (atropisomer, axis not shown; (M)) [Example 92-71, (M)-6-Chloro-4-[(2S,5R)-2,5-dimethyl-4-prop-2-enoyl-piperazin-1-yl]-7-(2,5-dimethylthiazol-4-yl)-1-(2-isopropyl-4-methyl-3-pyridyl)pyrido [2,3-d]pyrimidin-2-one]",,1.36
"C=CC(=O)N1[C@@H]2CC[C@H]1CN(c1nc(=O)n(-c3c(C)ccnc3C(C)C)c3nc(-c4ccccc4F)c(Cl)cc13)C2 (atropisomer, axis not shown; (M)) [Example 79-10, (M)-6-Chloro-7-(2-fluorophenyl)-1-(2-isopropyl-4-methyl-3-pyridyl)-4-[(1S,5R)-8-prop-2-enoyl-3,8-diazabicyclo[3.2.1]octan-3-yl]pyrido[2,3-d]pyrimidin-2-one]",,2.78
"C=CC(=O)N1C[C@H](C)N(c2nc(=O)n(-c3c(C)ccnc3C(C)C)c3nc(-c4ccccc4F)c(Cl)nc23)C[C@H]1C [Example 106-6, 6-Chloro-4-[(2S,5R)-2,5-dimethyl-4-prop-2-enoyl-piperazin-1-yl]-7-(2-fluorophenyl)-1-(2-isopropyl-4-methyl-3-pyridyl)pteridin-2-one]",,0.322
"C=CC(=O)N1C[C@H](C)N(c2nc(=O)n(-c3c(CN(CC)C(C)C)ccnc3C(C)C)c3nc(-c4ccccc4C(C)C)c(Cl)cc23)C[C@H]1C [Example 141-2, 6-Chloro-4-[(2S,5R)-2,5-dimethyl-4-prop-2-enoyl-piperazin-1-yl]-1-[4-[[ethyl(isopropyl)amino]methyl]-2-isopropyl-3-pyridyl]-7-(2-isopropylphenyl)pyrido[2,3-d]pyrimidin-2-one]",,0.279
"C=CC(=O)N1C[C@H](C)N(c2nc(=O)n(-c3c(C)ccnc3C(C)C)c3nc(-c4cncnc4C(C)C)c(Cl)cc23)C[C@H]1C (atropisomer, axis not shown; (M)) [Example 92-68, (M)-6-Chloro-4-[(2S,5R)-2,5-dimethyl-4-prop-2-enoyl-piperazin-1-yl]-1-(2-isopropyl-4-methyl-3-pyridyl)-7-(4-isopropylpy-rimidin-5-yl)pyrido[2,3-d]pyrimidin-2-one]",,3.31
"C=CC(=O)N1C[C@H](C)N(c2nc(=O)n(-c3c(C)ccnc3C(C)C)c3nc(-c4cccc(C(F)(F)F)c4)c(Cl)cc23)C[C@H]1C (atropisomer, axis not shown; (M)) [Example 92-56, (M)-6-Chloro-4-[(2S,5R)-2,5-dimethyl-4-prop-2-enoyl-piperazin-1-yl]-1-(2-isopropyl-4-methyl-3-pyridyl)-7-[3-(trifluoromethyl)phenyl]pyrido [2,3-d]pyrimidin-2-one]",,0.591
"C=CC(=O)N1C[C@H](C)N(c2nc(=O)n(-c3c(C)ccnc3C(C)C)c3nc(-c4ccccc4C(=O)NC)c(F)cc23)C[C@H]1C (atropisomer, axis not shown; (M)) [Example 94-18]",,0.749
"C=CC(=O)N1CCN(c2nc(=O)n(-c3c(C)ccnc3C(C)C)c3nc(-c4c(O)cccc4F)c(F)cc23)C(C)C1C (single isomer, unassigned) [Example 124-16-1, 4-[trans-2,3-dimethyl-4-prop-2-enoyl-piperazin-1-yl]-6-fluoro-7-(2-fluoro-6-hydroxy-phenyl)-1-(2-isopropyl-4-methyl-3-pyridyl)pyrido[2,3-d]pyrimidin-2-one]",,1.12
"C=CC(=O)N1C[C@H](C)N(c2nc(=O)n(-c3ccccc3P(C)(C)=O)c3nc(-c4ccccc4F)c(Cl)cc23)C[C@H]1C [Example 55-55, 6-Chloro-1-(2-dimethylphosphorylphenyl)-4-[(2S,5R)-2,5-dimethyl-4-prop-2-enoyl-piperazin-1-yl]-7-(2-fluorophenyl)pyrido[2,3-d]pyrimidin-2-one]",,3.14
"C=CC(=O)N1[C@H](C)CN(c2nc(=O)n(-c3c(C)cc(N)nc3C(C)C)c3nc(-c4ccccc4F)c(F)cc23)C[C@@H]1C (single isomer, unassigned) [Example 123-3]",,14
"C=CC(=O)N1C[C@H](C)N(c2nc(=O)n(-c3c(C)nc(Cl)nc3C(C)C)c3nc(-c4ccccc4F)c(Cl)cc23)C[C@H]1C (single isomer, unassigned) [Example 191-1]",2.99,
"C=CC(=O)N1C[C@H](C)N(c2nc(=O)n3c4nc(c(Cl)cc24)-c2ccccc2C/C=C/Cc2cccc(C(C)C)c2-3)C[C@H]1C (single isomer, unassigned) [Example 146-1-1]",,9.43
"CC#CC(=O)N1C[C@H](C)N(c2nc(=O)n(-c3c(C)ccnc3C(C)C)c3nc(-c4ccccc4F)c(F)cc23)C[C@H]1C [Example 119-1, 4-((2S,5R)-4(But-2-ynoyl)-2,5-dimethylpiperazin-1-yl)-6-fluoro-7-(2-fluorophenyl)-1-(2-isopropyl-4-methylpyridin-3-yl)pyrido[2,3-d]pyrimidin-2(1H)-one]",,24
"C=CC(=O)N1C[C@H](C)N(c2nc(=O)n(-c3c(C)ccnc3C(C)C)c3nc(C4CCCC4)c(Cl)cc23)C[C@H]1C (atropisomer, axis not shown; (M)) [Example 95-3, (M)-6-chloro-7-cyclopentyl-4-[(2S,5R)-2,5-dimethyl-4-prop-2-enoyl-piperazin-1-yl]-1-(2-isopropyl-4-methyl-3-pyridyl)pyrido [2,3-d]pyrimidin-2-one]",,0.631
"C=CC(=O)N1C[C@H](C)N(c2nc(=O)n(-c3c(C(C)C)ccnc3C(=O)N(C)C)c3nc(-c4ccccc4F)c(Cl)cc23)C[C@H]1C [Example 102-8, 3-[6-Chloro-4-[(2S,5R)-2,5-dimethyl-4-prop-2-enoyl-piperazin-1-yl]-7-(2-fluorophenyl)-2-oxo-pyrido[2,3-d]pyrimidin-1-yl]-4-isopropyl-N,N-dimethyl-pyridine-2-carboxamide]",,184
"C=CC(=O)N1C[C@H](C)N(c2nc(=O)n(-c3c(C(C)C)ccnc3C(C)C)c3nc(-c4ccccc4C)c(F)cc23)C[C@H]1C [Example 124-5, 1-(2,4-Diisopropyl-3-pyridyl)-4-[(2S,5R)-2,5-dimethyl-4-prop-2-enoyl-piperazin-1-yl]-6-fluoro-7-(o-tolyl)pyrido[2,3-d]pyrimidin-2-one]",,0.439

# Source: patent US11285156B2, “Substituted piperazines as KRAS G12C inhibitors” (Amgen Inc., priority 2018, dated 2022)
